The values below come from patent publication US20110190280A1, “Thiazole And Oxazole Kinase Inhibitors” (priority 2007, published 2011).

Assay [1] has as its system HT-29 tumor cells. The assay can be described thus: Cell growth inhibition assay (CellTiter-Glo), HT-29.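 Also: ATP content read by luminescence as proxy for cell number, growth inhibition versus DMSO vehicle wells, 0.2% DMSO final, nine serial threefold compound dilutions.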 The conditions noted are these: Homo sapiens, HT-29, 72 h, read-out: Activity in HT-29 Tumor Cells. In general terms: Cellular ATP, detected with luciferase, serves as a proxy for viable cell number.
Experimental: Cell Growth Inhibition Assays Human colon tumor cells (Colo205) were cultured in RPMI (Mediatech 50-020-PB) containing 10% FBS and 1% penicillin-streptomycin. […] Human melanoma cancer cells (A375-F11S) were cultured in RPMI (Mediatech 50-020-PB) containing 10% FBS, 1% sodium pyruvate, and 1% penicillin-streptomycin. Human colon cancer cells (HT-29) were cultured in high glucose DMEM (Mediatech 50-013-PB) containing 10% FBS and 1% penicillin-streptomycin. Human melanoma cancer cells (SK-MEL-3) were cultured in McCoy's 5A (50-025-PB) containing 15% FBS, and 1% penicillin-streptomycin. All cell lines were maintained at 37° C. in a humidified 5% CO2, 95% air incubator.
The next day, compounds were diluted as follows: For 96-well assays, 13.5 μl of compound in DMSO were diluted using nine (9) serial 1:3 dilutions of 4.5 μl in 9 μl of DMSO. Medium (270 μl/well of RPMI with 10% FBS and 1% penicillin-streptomycin) was added to the plates. Aliquots (7 μl) were added to cells in the final assay giving a final DMSO concentration of 0.2%. For 384-well assays, 15 μl of compound in DMSO were diluted using nine (9) serial 1:3 dilutions of 5 μl in 10 μl of DMSO, followed by a further dilution of 5 μl of compound with 95 μl of medium, of which 2 μl are added to cells in the final assay giving a final DMSO concentration of 0.2%. Cells were incubated at 37° C., 5% CO2 for 3 days.
Total ATP was measured (as a surrogate estimate of cell number) using CellTiter-Glo® (Promega G7571) reagent. Briefly, plates were removed from the incubator and allowed to equilibrate to room temperature for 30 minutes. CellTiter-Glo® (25 μl or 55 μl for 384-well or 96-well assays, respectively) reagent was added to each well and plates were shaken on an orbital plate shaker for 2 minutes. Plates were incubated without shaking for a further 30 minutes and read on an LJL Analyst GT reader in luminometer mode with an integration time of 0.5 seconds per well. Percent inhibition of cell growth was calculated relative to DMSO vehicle-treated control wells.
Assay [2] has as its target B-Raf (Homo sapiens, UniProt P15056). The assay can be described thus: B-Raf Accelerated MEK ATPase assay (BRAMA). Format: biochemical. How it is done:
Compounds of the present invention were tested for B-Raf […] inhibitory activity in a B-Raf Accelerated MEK ATPase assay (BRAMA). The BRAMA assay is a high sensitivity assay which measures an intrinsic MEK-mediated ATP hydrolysis uncoupled from downstream ERK phosphorylation by coupling the formation of ADP to NADH oxidation through the enzymes pyruvate kinase and lactate dehydrogenase. When ADP production is initiated by addition of catalytic amounts of an activated RAF enzyme and non-phosphorylated MEK, one observes robust ADP production concomitant with RAF-mediated phosphorylation of MEK. Specific details of the assay are disclosed in: C. Rominger, M. Schaber, E. May. Assay for B-Raf Activity Based on Intrinsic MEK ATPase Activity.

Assay [3] relates to SK-MEL-28 tumor cells. The assay can be described thus: Cell growth inhibition assay (CellTiter-Glo), SK-MEL-28.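 Also: luminescent total ATP as a proxy for cell number, threefold serial dilutions at 0.2% DMSO, percent growth inhibition versus DMSO vehicle control wells.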 As to conditions: Homo sapiens, SK-MEL-28, 72 h, read-out: Activity in SK-MEL-28 Tumor Cells.
The subject of assay [4] is SK-MEL-3 tumor cells. The assay can be described thus: Cell growth inhibition assay (CellTiter-Glo), SK-MEL-3.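 Also: human melanoma cells grown with compound for 3 days in 0.2% DMSO, total ATP read by luminescence as proxy for cell number, growth inhibition versus DMSO-treated wells.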 As to conditions: Homo sapiens, SK-MEL3, 72 h, read-out: Activity in SK-MEL-3 Tumor Cells.
Assay [5] concerns A375P tumor cells. The assay can be described thus: Cell growth inhibition assay (CellTiter-Glo), A375P.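 Also: total ATP luminescence used as proxy for cell number, serial threefold compound dilutions at 0.2% DMSO, growth inhibition expressed versus DMSO vehicle-treated wells.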 The conditions noted are these: Homo sapiens, 72 h, read-out: Activity in A375P Tumor Cells.
For assay [6], the system named is Colo205 tumor cells. The assay can be described thus: Cell growth inhibition assay (CellTiter-Glo), Colo205.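 Also: growth measured via total ATP luminescence (CellTiter-Glo) as a proxy for cell number, inhibition expressed against DMSO-treated control wells, 3-day exposure at 0.2% final DMSO.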 As to conditions: Homo sapiens, COLO 205, 72 h, read-out: Activity in Colo205 Tumor Cells.
Setting [7] is: BRAMA enzyme assay, class by pIC50, read-out: B-Raf Activity.

SMILES strings stand for the structures. Counter-ions that a name gives are not always drawn. Like-named read-outs stand apart in the source and are kept apart here. A value given as a limit tells only on which side of the number the result lay.

Turning to `CCNc1nc(-c2cccc(OC)c2)c(-c2ccnc(Nc3ccc(N4CCOCC4)nc3)n2)s1` [Example 42, 4-{2-(Ethylamino)-4-[3-(methyloxy)phenyl]-1,3-thiazol-5-yl}-N-[6-(4-morpholinyl)-3-pyridinyl]-2-pyrimidinamine], the IC50 was below 500 nM in assay [1]; below 100 nM in assay [2] (setting [7]); 500 to 5000 nM in assay [3]; below 500 nM in assay [4]; below 500 nM in assay [5]; below 500 nM in assay [6].
Consider `CCNc1nc(-c2cc(OC)cc(OC)c2)c(-c2ccnc(Nc3ccc(N4CCN(S(C)(=O)=O)CC4)nc3)n2)s1` [Example 2, 4-[4-[3,5-bis(methyloxy)phenyl]-2-(ethylamino)-1,3-thiazol-5-yl]-N-{6-[4-(methylsulfonyl)-1-piperazinyl]-3-pyridinyl}-2-pyrimidinamine], for which the IC50 was below 500 nM in assay [1]; below 100 nM in assay [2] (setting [7]); below 500 nM in assay [3]; below 500 nM in assay [4]; below 500 nM in assay [5]; below 500 nM in assay [6].
`CCNc1nc(-c2cc(Cl)cc(OC)c2)c(-c2ccnc(Nc3ccc(N4CCN(CCF)CC4)c(F)c3)n2)o1` [Example 104]: the IC50 in assay [1] is below 500 nM; in assay [2] (setting [7]), below 100 nM; in assay [3] it was 500 to 5000 nM; in assay [4] it was 500 to 5000 nM; in assay [5], 500 to 5000 nM; in assay [6], below 500 nM.
Regarding `CCNc1nc(-c2cc(OC)cc(OC)c2)c(-c2ccnc(Nc3ccc(OC4CCN(C(C)=O)CC4)c(F)c3)n2)s1` [Example 12, N-{4-[(1-Acetyl-4-piperidinyl)oxy]-3-fluorophenyl}-4-[4-[3,5-bis(methyloxy)phenyl]-2-(ethylamino)-1,3-thiazol-5-yl]-2-pyrimidinamine], the IC50 in assay [1] was below 500 nM; in assay [2] (setting [7]), below 100 nM; in assay [3], 500 to 5000 nM; in assay [4] it was below 500 nM; in assay [5], below 500 nM; in assay [6], below 500 nM.
Consider `CCNc1nc(-c2cc(C)cc(OC)c2)c(-c2ccnc(Nc3ccc(N4CCN(CCF)CC4)c(F)c3)n2)o1` [Example 128], for which the IC50 is 500 to 5000 nM in assay [1]; below 100 nM in assay [2]; 500 to 5000 nM in assay [3]; 500 to 5000 nM in assay [4]; 500 to 5000 nM in assay [5]; below 500 nM in assay [6].
With `CCNc1nc(-c2cccc(N(C)C)c2)c(-c2ccnc(Nc3ccc(OCCN4CCCC4)c(Cl)c3)n2)s1` [Example 45, N-(3-Chloro-4-{[2-(1-pyrrolidinyl)ethyl]oxy}phenyl)-4-[4-[3-(dimethylamino)phenyl]-2-(ethylamino)-1,3-thiazol-5-yl]-2-pyrimidinamine], the IC50 in assay [1] was below 500 nM; in assay [2] (setting [7]) it was below 100 nM; in assay [3] it was 500 to 5000 nM; in assay [4] it was 500 to 5000 nM; in assay [5], 500 to 5000 nM; in assay [6], 500 to 5000 nM.
In the case of `CCNc1nc(-c2cc(OC)cc(OC)c2)c(-c2ccnc(Nc3ccc(N4CCN(CCS(C)(=O)=O)CC4)nc3)n2)s1` [Example 1, 4-[4-[3,5-Bis(methyloxy)phenyl]-2-(ethylamino)-1,3-thiazol-5-yl]-N-(6-{4-[2-(methylsulfonyl)ethyl]-1-piperazinyl}-3-pyridinyl)-2-pyrimidinamine], the IC50 in assay [1] is below 500 nM; in assay [2] (setting [7]), below 100 nM; in assay [3] it was 500 to 5000 nM; in assay [4], below 500 nM; in assay [5], below 500 nM; in assay [6], below 500 nM.
Consider `CCNc1nc(-c2cc(C)cc(OC)c2)c(-c2ccnc(Nc3cc(OC)c(OC4CCN(CCS(C)(=O)=O)CC4)c(OC)c3)n2)o1` [Example 131], for which the IC50 is 500 to 5000 nM in assay [1]; below 100 nM in assay [2] (setting [7]); 500 to 5000 nM in assay [3]; below 500 nM in assay [4]; 500 to 5000 nM in assay [5]; below 500 nM in assay [6].
As to `CCNc1nc(-c2cc(C)cc(OC)c2)c(-c2ccnc(Nc3ccc(OC4CCN(CCS(C)(=O)=O)CC4)c(C)c3)n2)o1` [Example 125], the IC50 is 500 to 5000 nM in assay [1]; below 100 nM in assay [2] (setting [7]); 500 to 5000 nM in assay [3]; 500 to 5000 nM in assay [4]; 500 to 5000 nM in assay [5]; 500 to 5000 nM in assay [6].
On to `CCNc1nc(-c2cc(OC)cc(OC)c2)c(-c2ccnc(Nc3ccc(OC4CCN(CCOC)CC4)c(F)c3)n2)o1` [Example 89], for which the IC50 in assay [1] is 500 to 5000 nM; in assay [2] (setting [7]), below 100 nM; in assay [3], 500 to 5000 nM; in assay [4] it was below 500 nM; in assay [5], 500 to 5000 nM; in assay [6], 500 to 5000 nM.
Turning to `COc1cc(C)cc(-c2nc(C(C)C)oc2-c2ccnc(Nc3ccc(N4CCN(CCS(C)(=O)=O)CC4)c(F)c3)n2)c1` [Example 102], the IC50 in assay [1] was below 500 nM; in assay [2] (setting [7]) it was below 100 nM; in assay [3], 500 to 5000 nM; in assay [4], below 500 nM; in assay [5] it was 500 to 5000 nM; in assay [6], below 500 nM.
With `CCNc1nc(-c2cc(OC)cc(OC)c2)c(-c2ccnc(Nc3ccc(N4CCN(CCS(C)(=O)=O)CC4)c(F)c3)n2)s1` [Example 6, 4-[4-[3,5-Bis(methyloxy)phenyl]-2-(ethylamino)-1,3-thiazol-5-yl]-N-(3-fluoro-4-{4-[2-(methylsulfonyl)ethyl]-1-piperazinyl}phenyl)-2-pyrimidinamine trifluoroacetate], the IC50 in assay [1] was below 500 nM; in assay [2] (setting [7]), below 100 nM; in assay [3], 500 to 5000 nM; in assay [4] it was below 500 nM; in assay [5], below 500 nM; in assay [6], below 500 nM.
For the compound `CCNc1nc(-c2ccc3c(c2)OCO3)c(-c2ccnc(Nc3ccc(N4CCN(C(C)=O)CC4)nc3)n2)s1` [Example 53, N-[6-(4-Acetyl-1-piperazinyl)-3-pyridinyl]-4-[4-(1,3-benzodioxol-5-yl)-2-(ethylamino)-1,3-thiazol-5-yl]-2-pyrimidinamine], the IC50 in assay [1] is below 500 nM; in assay [2] (setting [7]), below 100 nM; in assay [3] it was 500 to 5000 nM; in assay [4], below 500 nM; in assay [5] it was below 500 nM; in assay [6], below 500 nM.
For `CCNc1nc(-c2cc(C)cc(OC)c2)c(-c2ccnc(Nc3ccc(N4CC[C@@H](F)C4)nc3)n2)o1` [Example 81], the IC50 in assay [1] is 500 to 5000 nM; in assay [2] (setting [7]) it was below 100 nM; in assay [3], 500 to 5000 nM; in assay [4] it was 500 to 5000 nM; in assay [5], 500 to 5000 nM; in assay [6], 500 to 5000 nM.
Take `COc1cc(C)cc(-c2nc(C(C)C)sc2-c2ccnc(Nc3ccc(N4CCN(CCS(C)(=O)=O)CC4)c(F)c3)n2)c1` [Example 62, N-(3-Fluoro-4-{4-[2-(methylsulfonyl)ethyl]-1-piperazinyl}phenyl)-4-{2-(1-methylethyl)-4-[3-methyl-5-(methyloxy)phenyl]-1,3-thiazol-5-yl}-2-pyrimidinamine]: the IC50 in assay [1] was below 500 nM; in assay [2] (setting [7]), below 100 nM; in assay [3], 500 to 5000 nM; in assay [4], below 500 nM; in assay [5] it was below 500 nM; in assay [6], 500 to 5000 nM.
`COc1cc(C)cc(-c2nc(C(C)C)oc2-c2ccnc(Nc3ccc(N4CCOCC4)nc3)n2)c1` [Example 99]: the IC50 in assay [1] was 500 to 5000 nM; in assay [2] (setting [7]) it was below 100 nM; in assay [3], 500 to 5000 nM; in assay [4] it was 500 to 5000 nM; in assay [5] it was 500 to 5000 nM; in assay [6] it was 500 to 5000 nM.
Take `CCNc1nc(-c2cc(OC)cc(OC)c2)c(-c2ccnc(Nc3cc(F)c(N4CCN(CCF)CC4)c(F)c3)n2)o1` [Example 94]: the IC50 in assay [1] was below 500 nM; in assay [2] (setting [7]) it was below 100 nM; in assay [3], 500 to 5000 nM; in assay [4] it was below 500 nM; in assay [5] it was 500 to 5000 nM; in assay [6], below 500 nM.
As to `CCNc1nc(-c2cc(OC)ccc2F)c(-c2ccnc(Nc3ccc(N4CCN(C)CC4)c(F)c3)n2)s1` [Example 56, 4-{2-(Ethylamino)-4-[2-fluoro-5-(methyloxy)phenyl]-1,3-thiazol-5-yl}-N-[3-fluoro-4-(4-methyl-1-piperazinyl)phenyl]-2-pyrimidinamine], the IC50 was below 500 nM in assay [1]; below 100 nM in assay [2] (setting [7]); 500 to 5000 nM in assay [3]; below 500 nM in assay [4]; below 500 nM in assay [5]; below 500 nM in assay [6].
For the compound `CCNc1nc(-c2cc(OC)cc(OC)c2)c(-c2ccnc(Nc3ccc(O[C@H]4CCN(CCS(C)(=O)=O)C4)nc3)n2)s1` [Example 3, 4-[4-[3,5-Bis(methyloxy)phenyl]-2-(ethylamino)-1,3-thiazol-5-yl]-N-[6-({(3S)-1-[2-(methylsulfonyl)ethyl]-3-pyrrolidinyl}oxy)-3-pyridinyl]-2-pyrimidinamine], the IC50 is below 500 nM in assay [1]; below 100 nM in assay [2] (setting [7]); below 500 nM in assay [3]; below 500 nM in assay [4]; below 500 nM in assay [5]; below 500 nM in assay [6].
